Measurements reported in PubChem BioAssay (NCI).
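The compound was tested at five concentrations on cells cultured in 96-well plates, with a 48-hour exposure period. The concentration for full growth arrest is given as TGI.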

Tests used:
Assay in all cases: NCI tumour cell line growth inhibition, 48 h
[1] = test system: EKVX NSCLC
[2] = test system: HCT-15 colon
[3] = test system: K-562 leukemia
[4] = test system: MALME-3M melanoma
[5] = test system: NCI-H23 lung
[6] = test system: OVCAR-8 ovarian
[7] = test system: SK-MEL-28 melanoma
[8] = test system: SK-OV-3 ovarian
[9] = test system: NCI-H522 lung
[10] = test system: TK-10 renal

Compound	TGI [1]	TGI [2]	TGI [3]	TGI [4]	TGI [5]	TGI [6]	TGI [7]	TGI [8]	TGI [9]	TGI [10]
COc1cccc(/C=N/n2c(C)n[nH]c2=O)c1	> 100 µM	> 100 µM	> 100 µM	> 100 µM	> 100 µM	> 100 µM	> 100 µM	> 100 µM		
NNC(=O)CSc1nc2ccccc2c(=O)n1N	> 100 µM	> 100 µM	> 100 µM	> 100 µM	> 100 µM	> 100 µM	> 100 µM		> 100 µM	40.9 µM
O=C(O)c1ccc(OCc2nc3cc(C(F)(F)F)ccc3nc2-c2ccccc2)cc1	> 100 µM	> 100 µM	> 100 µM		> 100 µM	> 100 µM	> 100 µM		> 100 µM	> 100 µM
Nc1ccc(S2(c3ccc(N)cc3)C=C(c3ccccc3)C(c3ccccc3)=C2)cc1	> 100 µM	> 100 µM	> 100 µM	> 100 µM	> 100 µM	98.4 µM	> 100 µM	> 59.7 µM		> 85.5 µM
Cn1c(COC(=O)Nc2ccccc2)c(COC(=O)Nc2ccccc2)c2ccc3cc(Cl)c(Cl)cc3c21	44.5 µM	15 µM	> 75 µM	6.59 µM	> 75 µM	7.5 µM	41.4 µM	> 75 µM		22.7 µM
C=C1CN2CC(=C)CN(C1)CS(=O)(=O)N1CC(=C)CN(CC(=C)C1)S(=O)(=O)N1CC(=C)CN(CC(=C)C1)S(=O)(=O)C2	> 100 µM	> 100 µM	> 100 µM	86.4 µM	> 100 µM	> 100 µM	45.6 µM		> 100 µM	51.5 µM
CCCCN=C(c1ccccc1)N1CCOCC1	> 100 µM	> 100 µM	> 100 µM	> 100 µM	> 100 µM	> 100 µM	> 100 µM	> 100 µM		> 100 µM
COC1C=COC2(C)Oc3c(C)c(O)c4c(O)c(c(C5SCCS5)c(O)c4c3C2=O)NC(=O)C(C)=C/C=C\C(C)C2OC(C)(C)OC(C2C)C(C)C(OC(C)=O)C1C (stereo unspecified)		38.4 µM	> 100 µM	36.5 µM	80.9 µM	28.5 µM	> 100 µM	> 100 µM	23 µM	24.8 µM
CCC/C(Cl)=N\OC(=O)Nc1ccc(OC(F)(F)F)cc1	40.1 µM		> 20.1 µM	4.22 µM	53.8 µM	36.3 µM	41.9 µM	34.2 µM	2.39 µM	12.4 µM
Cc1ccc(S(=O)(=O)NC(=O)N[C@@H](Cc2cnc[nH]2)C(=O)O)cc1		> 100 µM	> 100 µM	> 100 µM	> 100 µM	> 100 µM	> 100 µM	> 100 µM	> 100 µM	> 100 µM
CCNC(=O)Nc1cccc(NC(=O)NCC)n1	> 100 µM		> 100 µM	> 100 µM	> 100 µM	> 100 µM	> 100 µM	> 100 µM	> 100 µM	> 100 µM
COc1cc(OC)c(C2c3cc4c(cc3OC(N3CCCC3)C2C)OCO4)c(OC)c1 (stereo unspecified)	> 100 µM	52.3 µM	58.2 µM		59.1 µM	> 100 µM	46.2 µM		48.7 µM	> 100 µM
CC(=O)OCC1OC(n2c3c(cc(C#N)c2=S)CCCCC3)C(OC(C)=O)C(OC(C)=O)C1OC(C)=O (stereo unspecified)		> 100 µM	> 100 µM	> 100 µM	> 100 µM	> 100 µM	> 100 µM		> 100 µM	> 100 µM
COc1ccc(C2COc3cc(O)c(O)cc3C2)cc1 (stereo unspecified)	49.9 µM	99.3 µM	34.2 µM	59.3 µM	159 µM	63.3 µM	32.9 µM	163 µM	14.1 µM	
Cc1ccc(O)c(-c2cscn2)c1	> 100 µM	> 100 µM	> 100 µM	> 100 µM	> 100 µM	> 100 µM		> 100 µM		> 100 µM
CC(C)=CCNc1ncnc2c1ncn2CCC#N		> 100 µM	> 100 µM	> 100 µM	> 100 µM	> 100 µM	> 100 µM	> 100 µM	> 100 µM	> 100 µM
COc1ccc(/C=C2\N=C(SC)NC2=O)cc1	> 100 µM	> 100 µM		> 100 µM	> 100 µM	> 100 µM	> 100 µM	> 100 µM	> 100 µM	> 100 µM
CSc1ncnc2c1ncn2CCC#N	> 100 µM		> 100 µM	> 100 µM	> 100 µM	> 100 µM	> 100 µM	> 100 µM	> 100 µM	> 100 µM
C=CCOc1ccc(C2C(C(=O)OCC)C(=O)CC(C)(O)C2C(=O)OCC)cc1OC (stereo unspecified)	> 100 µM	> 100 µM	> 100 µM	> 100 µM	> 100 µM	> 100 µM	> 100 µM		> 100 µM	> 100 µM
CC1CCCC(CC(=O)O)(CC(=O)O)C1 (stereo unspecified)	> 100 µM	> 100 µM	> 100 µM	> 100 µM	> 100 µM	> 100 µM	> 100 µM		> 100 µM	> 100 µM
[N-]=[N+]=NC1=C(c2ccccn2)C(=O)c2cccc3cccc1c23		> 100 µM	> 100 µM	> 100 µM	> 100 µM		> 100 µM	> 100 µM		> 100 µM
O=C1c2cccnc2-c2nccc3c2c1nc1cc(Br)ccc13	2.52 µM	0.25 µM		0.374 µM	0.313 µM	0.388 µM	0.325 µM	0.706 µM	0.29 µM	2.33 µM
CCOc1ccc(/C=C2/C(=O)N=C(NC(C)=O)N2C)cc1	> 100 µM	> 100 µM			> 100 µM	> 100 µM	> 100 µM	> 100 µM		> 100 µM
COC(=O)C1CCCN1C(=O)C(Cc1cn(S(=O)(=O)c2ccc(C)cc2)cn1)NC(=O)OC(C)(C)C (stereo unspecified)	> 100 µM	> 100 µM	> 100 µM	> 100 µM	> 100 µM	> 100 µM	> 100 µM			> 100 µM
